Reference: PubChem BioAssay (NCI)
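Where inhibition never reached the appropriate level, the endpoint shown equals the highest concentration tested. Otherwise, values were interpolated linearly from a five-concentration, 48-hour dose response in 96-well plates. TGI: total growth inhibition.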

How the values were obtained:
Test in all cases: NCI anticancer screen, dose series, 48 h
IGROV1 ovarian = tested on: IGROV1 ovarian
PC-3 prostate = tested on: PC-3 prostate
HCC-2998 colon = tested on: HCC-2998 colon
OVCAR-5 ovarian = tested on: OVCAR-5 ovarian
SK-MEL-5 melanoma = tested on: SK-MEL-5 melanoma
SNB-19 CNS = tested on: SNB-19 CNS
M14 melanoma = tested on: M14 melanoma
NCI-H460 lung = tested on: NCI-H460 lung
U251 CNS = tested on: U251 CNS
SR leukemia = tested on: SR leukemia
CAKI-1 renal = tested on: CAKI-1 renal
RXF 393 renal = tested on: RXF 393 renal
786-0 renal = tested on: 786-0 renal
A549 NSCLC = tested on: A549 NSCLC
UO-31 renal = tested on: UO-31 renal
SF-268 CNS = tested on: SF-268 CNS
MALME-3M melanoma = tested on: MALME-3M melanoma
OVCAR-3 ovarian = tested on: OVCAR-3 ovarian
A498 renal = tested on: A498 renal
MDA-MB-231 breast = tested on: MDA-MB-231 breast
SK-MEL-28 melanoma = tested on: SK-MEL-28 melanoma
ACHN renal = tested on: ACHN renal
HCT-116 colon = tested on: HCT-116 colon
OVCAR-4 ovarian = tested on: OVCAR-4 ovarian
KM12 colon = tested on: KM12 colon
HS 578T breast = tested on: HS 578T breast
K-562 leukemia = tested on: K-562 leukemia
SNB-75 CNS = tested on: SNB-75 CNS
DU-145 prostate = tested on: DU-145 prostate
CCRF-CEM leukemia = tested on: CCRF-CEM leukemia
SN12C renal = tested on: SN12C renal
SW-620 colon = tested on: SW-620 colon
SK-OV-3 ovarian = tested on: SK-OV-3 ovarian
HOP-92 NSCLC = tested on: HOP-92 NSCLC
MOLT-4 leukemia = tested on: MOLT-4 leukemia
SK-MEL-2 melanoma = tested on: SK-MEL-2 melanoma
RPMI-8226 leukemia = tested on: RPMI-8226 leukemia
NCI/ADR-RES ovarian = tested on: NCI/ADR-RES ovarian
COLO 205 colon = tested on: COLO 205 colon
HOP-62 NSCLC = tested on: HOP-62 NSCLC
EKVX NSCLC = tested on: EKVX NSCLC
MCF7 breast = tested on: MCF7 breast
MDA-MB-435 = tested on: MDA-MB-435
HCT-15 colon = tested on: HCT-15 colon
UACC-257 melanoma = tested on: UACC-257 melanoma
UACC-62 melanoma = tested on: UACC-62 melanoma
LOX IMVI melanoma = tested on: LOX IMVI melanoma
T-47D breast = tested on: T-47D breast
NCI-H23 lung = tested on: NCI-H23 lung
BT-549 breast = tested on: BT-549 breast
OVCAR-8 ovarian = tested on: OVCAR-8 ovarian
SF-295 CNS = tested on: SF-295 CNS
NCI-H522 lung = tested on: NCI-H522 lung
MDA-N = tested on: MDA-N
TK-10 renal = tested on: TK-10 renal
HT29 colon = tested on: HT29 colon
HL-60(TB) leukemia = tested on: HL-60(TB) leukemia
NCI-H226 lung = tested on: NCI-H226 lung

CCCCCCCC/C=C(\Br)C(O)C(Br)Br (stereo not drawn)
TGI (IGROV1 ovarian): 59.1 µM | TGI (PC-3 prostate): > 100 µM | TGI (HCC-2998 colon): 48 µM | TGI (OVCAR-5 ovarian): 43.6 µM | TGI (SK-MEL-5 melanoma): 34 µM | TGI (SNB-19 CNS): > 100 µM | TGI (M14 melanoma): 48.5 µM | TGI (NCI-H460 lung): 86.8 µM | TGI (U251 CNS): > 100 µM | TGI (SR leukemia): > 100 µM | TGI (CAKI-1 renal): 63.7 µM | TGI (RXF 393 renal): 37.8 µM | TGI (786-0 renal): 39.7 µM | TGI (A549 NSCLC): > 100 µM | TGI (UO-31 renal): 38.8 µM | TGI (SF-268 CNS): 53.1 µM | TGI (MALME-3M melanoma): 43 µM | TGI (OVCAR-3 ovarian): 34.8 µM | TGI (A498 renal): 68.1 µM | TGI (MDA-MB-231 breast): > 100 µM | TGI (SK-MEL-28 melanoma): > 100 µM | TGI (ACHN renal): 51.9 µM | TGI (HCT-116 colon): > 100 µM | TGI (OVCAR-4 ovarian): 85.9 µM | TGI (KM12 colon): 59.6 µM | TGI (HS 578T breast): 74.7 µM | TGI (K-562 leukemia): > 100 µM | TGI (SNB-75 CNS): > 100 µM | TGI (DU-145 prostate): > 100 µM | TGI (CCRF-CEM leukemia): 35.5 µM | TGI (SN12C renal): 36.6 µM | TGI (SW-620 colon): 34.2 µM | TGI (SK-OV-3 ovarian): 90.6 µM | TGI (HOP-92 NSCLC): 42.9 µM | TGI (MOLT-4 leukemia): > 100 µM | TGI (SK-MEL-2 melanoma): 63.7 µM | TGI (RPMI-8226 leukemia): > 100 µM | TGI (NCI/ADR-RES ovarian): 57.2 µM | TGI (COLO 205 colon): 41 µM | TGI (HOP-62 NSCLC): 47.6 µM | TGI (EKVX NSCLC): 92.9 µM | TGI (MCF7 breast): 98.3 µM | TGI (MDA-MB-435): 59.1 µM | TGI (HCT-15 colon): 47.2 µM | TGI (UACC-257 melanoma): 76.1 µM | TGI (UACC-62 melanoma): 41.6 µM | TGI (LOX IMVI melanoma): 41.2 µM | TGI (T-47D breast): > 100 µM | TGI (NCI-H23 lung): 47.7 µM | TGI (BT-549 breast): 44.8 µM | TGI (OVCAR-8 ovarian): 49.5 µM | TGI (SF-295 CNS): 41.5 µM | TGI (NCI-H522 lung): 38.4 µM | TGI (MDA-N): 54.1 µM | TGI (TK-10 renal): > 100 µM

CN(C)C(=S)/N=C1\SC(=Nc2ccccc2)C(=Nc2ccccc2)N1c1ccc([N+](=O)[O-])cc1
TGI (IGROV1 ovarian): > 100 µM | TGI (PC-3 prostate): > 100 µM | TGI (HCC-2998 colon): > 100 µM | TGI (OVCAR-5 ovarian): > 100 µM | TGI (SK-MEL-5 melanoma): > 100 µM | TGI (SNB-19 CNS): > 100 µM | TGI (M14 melanoma): > 100 µM | TGI (NCI-H460 lung): > 100 µM | TGI (U251 CNS): > 100 µM | TGI (SR leukemia): > 100 µM | TGI (CAKI-1 renal): > 100 µM | TGI (RXF 393 renal): > 100 µM | TGI (HT29 colon): > 100 µM | TGI (UO-31 renal): > 100 µM | TGI (MALME-3M melanoma): > 100 µM | TGI (OVCAR-3 ovarian): > 100 µM | TGI (A498 renal): > 100 µM | TGI (MDA-MB-231 breast): > 100 µM | TGI (SK-MEL-28 melanoma): > 100 µM | TGI (HCT-116 colon): > 100 µM | TGI (KM12 colon): > 100 µM | TGI (HS 578T breast): > 100 µM | TGI (K-562 leukemia): > 100 µM | TGI (SNB-75 CNS): > 100 µM | TGI (DU-145 prostate): > 100 µM | TGI (CCRF-CEM leukemia): > 100 µM | TGI (SN12C renal): > 100 µM | TGI (SK-OV-3 ovarian): > 100 µM | TGI (HOP-92 NSCLC): > 100 µM | TGI (MOLT-4 leukemia): > 100 µM | TGI (SK-MEL-2 melanoma): > 100 µM | TGI (RPMI-8226 leukemia): > 100 µM | TGI (NCI/ADR-RES ovarian): > 100 µM | TGI (COLO 205 colon): > 100 µM | TGI (HL-60(TB) leukemia): > 100 µM | TGI (HOP-62 NSCLC): > 100 µM | TGI (MCF7 breast): > 100 µM | TGI (MDA-MB-435): > 100 µM | TGI (HCT-15 colon): > 100 µM | TGI (UACC-62 melanoma): > 100 µM | TGI (T-47D breast): > 100 µM | TGI (NCI-H23 lung): > 100 µM | TGI (BT-549 breast): > 100 µM | TGI (OVCAR-8 ovarian): > 100 µM | TGI (NCI-H226 lung): > 100 µM | TGI (SF-295 CNS): > 100 µM | TGI (NCI-H522 lung): > 100 µM | TGI (MDA-N): > 100 µM
